Test results: patent publication US20230381163A1, “DABIGATRAN COMPOSITIONS AND METHODS OF TREATING AGE-RELATED MACULAR DEGENERATION” (The United States Government As Represented By The …, priority 2022, published 2023)
Entries after “also recorded” stand apart in the source; their conditions may differ.

What was measured:
[1] = test system: C3α breakdown products C3d/C3dg and C3α′1; assay: Complement activation (C3d) in RPE/choroid of CNV mice (western blot); format: in vivo, mouse
Text: (§1) Pathway analysis in CNV. Based on the results in cells, an analysis in animals followed, focusing on VEGF levels in the RPE/choroid, complemented by CTGF analysis and complement activation (C3d production and binding). RPE/choroid samples were collected at the end of the angiogenesis experiment (day 6) and after the final OCT analysis in the repair experiment (day 23) and compared to naive controls (no CNV and no dabigatran treatment).
Unexpectedly, and in contrast to the cell data (FIG. 4), C3d deposition was not reduced by dabigatran.

[2] = test system: complement component C3; assay: Thrombin-mediated C3 cleavage in apical supernatants of ARPE-19 cells (western blot); format: cell-based, human; settings: 10 μM
Description: Second, it was tested whether thrombin can cleave complement components (Huber-Lang, M., et al. (2006). Nat Med 12, 682-687; and Krisinger, M. J., et al. (2012). Blood 120, 1717-1725), specifically C3 and C5, producing cleavage products potentially different from those produced by classical convertases. To test the effects of thrombin on complement cleavage, the apical supernatants of treated ARPE-19 cell monolayers were analyzed by western blotting. Cleavage of C3α was evaluated using an antibody specific for C3a (FIG. 5A, left-hand blot). The C3a antibody detected C3, the C3α band as well as other fragments containing C3a. Thrombin caused a concentration dependent cleavage of complement component C3 (˜190 kDa), caused reduction of the 120 kDa C3a band and generation of a new 80 kDa fragment. Fragments at 32 kDa and 9-10 kDa with higher doses of thrombin treatment (FIG. 5A, 10 U/mL) were also observed. The 9-10 kDa band ran at the same molecular weight as purified C3a (FIG. 11). The reduction of the 120 kDa fragment was correlated with the generation of the 80 kDa fragment (FIG. 5B). The loss of the 120 kDa fragment was prevented by either dabigatran (10 μM) or the C3 inhibitor compstatin (100 μM), which inhibits complement both on cell membranes as well as in fluid phase, but not by TT30 (10 μM), which is an inhibitor that prevents membrane-bound AP activation (FIG. 5C). […]

[3] = target: thrombin (Mus musculus, UniProt P19221)
Description: Thrombin activity assay. Thrombin activity was measured according to a methodology described by Ludwicka with modifications (Ohba, T., et al. (1994). Am J Respir Cell Mol Biol 10, 405-412). Thrombin specific peptide Boc-Val-Pro-Arg-7-amido-4-methylcoumarin hydrochloride (Sigma-Aldrich) was reconstituted in molecular grade ice-cold H2O at a concentration of 0.5 mg/ml and used as substrate.
It was test whether dabigatran would alter the course of angiogenesis or repair, by feeding animals with dabigatran chow during the two different phases.

[4] = test system: choroidal neovascularization (CNV) lesions; assay: Laser-induced CNV lesion size by OCT in mice fed dabigatran chow; format: in vivo, C57BL/6J mice
Text: Mouse model of choroidal neovascularization (CNV): Choroidal neovascularization. C57BL/6J mice (males and females) from the same colony, to guarantee identical microbiome ([…] al., 2016), were recruited to the study at 3 months of age. Argon laser photocoagulation (532 nm, 100 μm spot size, 0.1 s duration, 100 mW) was used to generate 4 laser spots around the optic nerve of each eye (Rohrer et al., 2009), utilizing bubble formation at the site of the laser burn as the inclusion criteria for successful Bruch's membrane rupture (Nozaki et al., 2006). Dabigatran exposure. Mice were fed standard chow fortified with dabigatran etexilate (10 […] of chow; Boehringer Ingelheim). Mice were either fed dabigatran chow during the angiogenesis period of CNV (starting 2 days prior to CNV induction through day 6 when the tissues were collected), or during the wound healing period (starting after the OCT analysis to ensure CNV growth on day 5 through day 23). Optical Coherence Tomography (OCT) analysis. OCT was used to quantify CNV lesion size on day 5 post laser treatment (Schnabolk, G., et al. (2014). Exp Eye Res 129, 18-23; Schnabolk, G., et al. (2015). Invest Ophthalmol Vis Sci; and Coughlin, B., et al. (2016). Sci Rep 6, 23794), or in weekly intervals to document recovery from fibrosis (Parsons, N., et al. (2019). Mol Immunol 108, 8-12) using an SD-OCT Bioptigen® Spectral Domain Ophthalmic Imaging System (Bioptigen Inc., Durham NC). Mice were anesthetized prior to imaging, eyes kept hydrated with normal saline, and body temperature was carefully monitored to prevent anesthesia-induced cataracts. The methods for imaging and analysis have been described (Schnabolk, G., et al. (2014). Exp Eye Res 129, 18-23; Schnabolk, G., et al. (2015). Invest Ophthalmol Vis Sci; Coughlin, B., et al. (2016). Sci Rep 6, 23794; and Parsons, N., et al. (2019). Mol Immunol 108, 8-). Based on the size of the individual pixels (1.6×1.6 μm), the lesion sizes were calculated.

[5] = test system: C3d and C5b-9 deposition on ARPE-19 cells; assay: C3d and MAC (C5b-9) deposition on ARPE-19 cell surfaces (immunofluorescence); settings: 10 μM, compared with thrombin-treated cells (20 U/mL)
Description: ARPE-19 cells were grown on transwell membranes in 6 well plates (Thurman, J. M., et al. (2009). J Biol Chem 284, 16939-16947), treated with thrombin and inhibitors, and fixed in 4% paraformaldehyde for 15 min at room temperature. Primary antibodies against C5b-9 (1:200, Abcam) and C3d (1:100) (Thurman, J. M., et al. (2013). J Clin Invest 123, 2218-2230) were diluted in blocking buffer (10% normal goat serum, 3% BSA, 0.4% Triton X-100 in PBS) and cells were incubated for overnight at 4° C., followed by washes and incubation with goat anti-rabbit Alexa Fluor® 568—conjugated IgG or donkey anti-goat Alexa Fluor® 488-conjugated secondary antibodies (1:500; Thermo Fisher Scientific), respectively. Nuclei were identified with DAPI (Sigma-Aldrich). Transwell membranes were covered with aqua-mount mounting media (Thermo Scientific), cover slipped and photographed (Olympus 1X73 Research Inverted Microscope equipped with cellSens imaging software).
First, it was tested whether thrombin results in deposition of C3d and the assembly of MAC on ARPE-19 cell surfaces. ARPE-19 cell monolayers were treated apically with thrombin and deposition of MAC (C5b-9; red) and C3d (green) were examined by immunofluorescence staining (FIG. 4A).

[6] = test system: VEGF secretion in ARPE-19 cells; assay: VEGF secretion into apical supernatant of ARPE-19 monolayers (ELISA); format: cell-based, human; settings: dabigatran, thrombin-treated cells
Description: Cell culture experiments: Cells. […] Frontiers in Aging Neuroscience 9).
VEGF ELISA. VEGF in the supernatant was measured using the Quantikine® Human VEGF Immunoassay (R & D System) according to the manufacturer's protocol. In brief, 200 μl of standard/sample was mixed with 50 μl of assay diluent and added to the plate precoated with the capture antibody. After washing, 200 μl of the VEGF detection antibody (polyclonal antibody specific for human VEGF conjugated to horseradish peroxidase) was added, followed by freshly prepared substrate reagents (stabilized hydrogen peroxide and tetramethylbenzidine). The reaction was terminated using 50 μl of stop solution and absorbance was measured at λ1 450 nm with wavelength correction λ2 at 540 nm. VEGF concentration of samples were calculated comparing the absorbance with the standards and converted into fold change considering the serum-free condition as 1 in the scale.

[7] = test system: CTGF; assay: CTGF levels in RPE/choroid of CNV mice (western blot); format: in vivo, mouse; settings: end of repair period (23 days), P<0.01
Text: as §1

SMILES: CCCCCCOC(=O)NC(=N)c1ccc(NCc2nc3cc(C(=O)N(CCC(=O)OCC)c4ccccn4)ccc3n2C)cc1
- effect on C3d deposition ([1]; CNV animals, repair phase): not reduced
- effect on C3d/C3dg and C3α′1 levels in RPE/choroid ([1]; end of repair period (23 days), P<0.05): further elevated
- effect on thrombin-mediated loss of the 120 kDa C3 fragment [2]: prevented
- reduction of thrombin activity in retina/RPE/choroid tissues ([3]; mice on dabigatran chow vs control mice, P=0.04): ~10%
- reduction of thrombin activity in serum ([3]; mice on dabigatran chow ˜10 mg/kg per day vs control mice, P=0.003): ~35%
- thrombin activity in retina/RPE/choroid tissues ([3]; mice on dabigatran chow, control: 100±3.1): 91.1±2.6
- thrombin activity in serum ([3]; mice on dabigatran chow, control: 100±7.6): 65.4±5.1
- reduction of CNV lesion sizes ([4]; dabigatran from 2 days prior to CNV induction through angiogenesis phase, OCT day 5, insignificant, P=0.2): ~15%
- CNV lesion size at final time point ([4]; dabigatran from day 5 through repair phase, day 23, P<0.02): significantly smaller lesions
- CNV lesion response over time (repair) ([4]; repair phase days 5-23, repeated measure ANOVA P<0.0001): significant effect of treatment; also recorded: acceleration of repair
- reduction of C5b-9 deposition [5]: ~50%
- reduction of C3d deposition [5]: ~60%
- reduction of thrombin-induced VEGF content [6]: ~35%
- effect on CTGF levels in RPE/choroid [7]: significantly reduced
